Molecular target: Ab-7^123 dl-Met complex (epinephrine type catecholamine antibody)
Experiment: Antibody specificity: 50% inhibition of antibody-labelled dl-metanephrine complex (competitive binding radioimmunoassay)
Design: species or system rabbit
Settings: amount for 50% inhibition; incubation volume 0.5 or 1.0 ml
Experimental: The specificity of an epinephrine type catecholamine antibody suitable for use in the practice of the present method is set forth below in Table 1:
For immunization of rabbits, 10 mg. of each of the products of Example 8 or Example 9 was dissolved in 1 ml. of phosphate buffered saline and emulsified with 1 ml. of complete Freund's adjuvant. The second inoculation was given three weeks later and consisted of 1.5 mg. immunogen in 1 ml. PBS emulsified with 1 ml. of complete Freund's adjuvant. The third injection, five weeks after the first, employed the same concentration of antigen but was in incomplete Freund's adjuvant. Immunizations were by the subcutaneous route.
A competitive binding radioimmunoassay procedure is used similar to that described in U.S. Pat. No. 3,704,282. An incubation volume of either 0.5 or 1.0 ml. is used and antibody-label complex is separated from free label by precipitation with saturated

Row | SMILES | 50 % INHIBITION OF Ab-7^123 dl-Met OMPLEX [ng]
1 | CNCC(O)c1ccc(O)c(OC)c1 (racemic) [dl-Metanephrine] | 0.050
2 | CNCC(O)c1ccc(O)cc1 (racemic) [dl-Synephrine] | 0.100
3 | CNC[C@H](O)c1ccc(O)c(O)c1 [1-Epinephrine] | 0.250
4 | NC[C@H](O)c1ccc(O)c(O)c1 [1-Norepinephrine] | > 500
5 | CNC[C@H](O)c1cccc(O)c1 [1-Phenylephrine] | 0.060
6 | CC(N)Cc1ccccc1 (stereo not shown) [Amphetamine] | > 500
7 | N[C@@H](Cc1ccc(O)c(O)c1)C(=O)O [DOPA] | > 500
8 | NCCc1ccc(O)c(O)c1 [Dopamine] | > 500
9 | CNC(C)C(O)c1ccccc1 (stereo not shown) [Ephedrine] | > 500
10 | CNCCc1ccc(O)c(O)c1 [Epinine] | 0.350
11 | CC(C)NCC(O)c1ccc(O)c(O)c1 (stereo not shown) [Isoproterenol] | > 500
12 | CNC(C)Cc1ccccc1 (stereo not shown) [Methamphetamine] | > 500
13 | NCCc1c[nH]c2ccc(O)cc12 [Sezotosin] | > 500
